From ChEMBL document CHEMBL3046635, “Synthesis and Herbicidal Activity of New Pyrazole-4-carboxamide Derivatives” (J Pestic Sci, 2004)
Activity calls are given as the source filed them.

Tests used:
Ammannia multiflora [1] = assay: Pre-emergence herbicidal activity against Ammannia multiflora at 500 g a.i/ha measured after 14 days; type: functional, organism-based
Ammannia multiflora [2] = assay: Pre-emergence herbicidal activity against Ammannia multiflora assessed as bleaching of stem/leaf parts; type: functional, organism-based
Lindernia procumbens [3] = assay: Post-emergence herbicidal activity against Lindernia procumbens assessed as bleaching of stem/leaf parts; type: functional, organism-based; also: test concentration or dose not given here
Pontederia vaginalis [4] = assay: Post-emergence herbicidal activity against Monochoria vaginalis assessed as bleaching of stem/leaf parts; type: functional, organism-based; also: test concentration or dose not given here
Pontederia vaginalis [5] = assay: Pre-emergence herbicidal activity against Monochoria vaginalis assessed as bleaching of stem/leaf parts; type: functional, organism-based
Rotala indica [6] = assay: Post-emergence herbicidal activity against Rotala indica assessed as bleaching of stem/leaf parts; type: functional, organism-based; also: test concentration or dose not given here
Cyperus difformis [7] = assay: Post-emergence herbicidal activity against Cyperus difformis assessed as bleaching of stem/leaf parts; type: functional, organism-based; also: test concentration or dose not given here
Elatine triandra [8] = assay: Post-emergence herbicidal activity against Elatine triandra assessed as bleaching of stem/leaf parts; type: functional, organism-based; also: test concentration or dose not given here
[9] = system: Schoenoplectiella juncoides; assay: Post-emergence herbicidal activity against Schoenoplectiella juncoides assessed as bleaching of stem/leaf parts; type: functional, organism-based; also: test concentration or dose not given here
[10] = system: Schoenoplectiella juncoides; assay: Pre-emergence herbicidal activity against Schoenoplectiella juncoides assessed as bleaching of stem/leaf parts; type: functional, organism-based
Eleocharis acicularis [11] = assay: Pre-emergence herbicidal activity against Eleocharis acicularis assessed as bleaching of stem/leaf parts; type: functional, organism-based
Oryza sativa = assay: Phytotoxicity against Oryza sativa cv. Koshihikari (rice) at 500 g a.i/ha measured after 14 days; type: organism-based; settings: in vivo, 336 h
Cyperus difformis [12] = assay: Pre-emergence herbicidal activity against Cyperus difformis assessed as bleaching of stem/leaf parts; type: functional, organism-based
Pontederia vaginalis [13] = assay: Pre-emergence herbicidal activity against Monochoria vaginalis at 500 g a.i/ha measured after 14 days; type: functional, organism-based
[14] = system: Schoenoplectiella juncoides; assay: Pre-emergence herbicidal activity against Schoenoplectiella juncoides at 500 g a.i/ha measured after 14 days; type: functional, organism-based
Echinochloa oryzicola [15] = assay: Pre-emergence herbicidal activity against Echinochloa oryzicola at 500 g a.i/ha measured after 14 days; type: functional, organism-based
Ammannia multiflora [16] = assay: Post-emergence herbicidal activity against Ammannia multiflora assessed as bleaching of stem/leaf parts; type: functional, organism-based; also: test concentration or dose not given here
Lindernia procumbens [17] = assay: Pre-emergence herbicidal activity against Lindernia procumbens at 500 g a.i/ha measured after 14 days; type: functional, organism-based
Cyperus difformis [18] = assay: Pre-emergence herbicidal activity against Cyperus difformis at 500 g a.i/ha measured after 14 days; type: functional, organism-based
Lindernia procumbens [19] = assay: Pre-emergence herbicidal activity against Lindernia procumbens assessed as bleaching of stem/leaf parts; type: functional, organism-based
Echinochloa oryzicola [20] = assay: Post-emergence herbicidal activity against Echinochloa oryzicola assessed as bleaching of stem/leaf parts; type: functional, organism-based; also: test concentration or dose not given here
Eleocharis acicularis [21] = assay: Pre-emergence herbicidal activity against Eleocharis acicularis at 500 g a.i/ha measured after 14 days; type: functional, organism-based
Echinochloa oryzicola [22] = assay: Pre-emergence herbicidal activity against Echinochloa oryzicola assessed as bleaching of stem/leaf parts; type: functional, organism-based
Rotala indica [23] = assay: Pre-emergence herbicidal activity against Rotala indica assessed as bleaching of stem/leaf parts; type: functional, organism-based
Rotala indica [24] = assay: Pre-emergence herbicidal activity against Rotala indica at 500 g a.i/ha measured after 14 days; type: functional, organism-based
Elatine triandra [25] = assay: Pre-emergence herbicidal activity against Elatine triandra assessed as bleaching of stem/leaf parts; type: functional, organism-based
Elatine triandra [26] = assay: Pre-emergence herbicidal activity against Elatine triandra at 500 g a.i/ha measured after 14 days; type: functional, organism-based
Eleocharis acicularis [27] = assay: Post-emergence herbicidal activity against Eleocharis acicularis assessed as bleaching of stem/leaf parts; type: functional, organism-based; also: test concentration or dose not given here

SMILES	Activity (Ammannia multiflora [1])	Activity (Ammannia multiflora [2])	Activity (Lindernia procumbens [3])	Activity (Pontederia vaginalis [4])	Activity (Pontederia vaginalis [5])	Activity (Rotala indica [6])	Activity (Cyperus difformis [7])	Activity (Elatine triandra [8])	Activity [9]	Activity [10]	Activity (Eleocharis acicularis [11])	Activity (Oryza sativa)	Activity (Cyperus difformis [12])	Activity (Pontederia vaginalis [13])	Activity [14]	Activity (Echinochloa oryzicola [15])	Activity (Ammannia multiflora [16])	Activity (Lindernia procumbens [17])	Activity (Cyperus difformis [18])	Activity (Lindernia procumbens [19])	also measured
Cc1c(C(=O)NOc2ccc(F)cc2F)c(OCc2cccc(C(F)(F)F)c2)nn1C	inactive	Active	Active	Active	Active	Active	Active	Active	Active	Active	Active	Non-toxic	Active	inactive	Active	inactive	Active	inactive	inactive	Active	Activity (Echinochloa oryzicola [20]): Active; Activity (Eleocharis acicularis [21]): inactive; Activity (Echinochloa oryzicola [22]): Active; Activity (Rotala indica [23]): Active; Activity (Rotala indica [24]): inactive; Activity (Elatine triandra [25]): Active; Activity (Elatine triandra [26]): inactive; Activity (Eleocharis acicularis [27]): Active
Cn1cc(C(=O)N2CCCC2)c(OCc2cccc(C(F)(F)F)c2)n1	inactive	Active	Active	Active	Active	Active	Active	Active	Active	Active	Active	Non-toxic	Active	inactive	inactive	inactive	Active	inactive	inactive	Active	Activity (Echinochloa oryzicola [20]): Active; Activity (Eleocharis acicularis [21]): inactive; Activity (Echinochloa oryzicola [22]): Active; Activity (Rotala indica [23]): Active; Activity (Rotala indica [24]): inactive; Activity (Elatine triandra [25]): Active; Activity (Elatine triandra [26]): inactive; Activity (Eleocharis acicularis [27]): Active
Cn1cc(C(=O)Nc2ccc(C#N)cc2)c(OCc2cccc(C(F)(F)F)c2)n1	Active	Active	Active	Active	Active	Active	Active	Active	Active	Active	Active	Non-toxic	Active	inactive	inactive	inactive	Active	Active	inactive	Active	Activity (Echinochloa oryzicola [20]): Active; Activity (Eleocharis acicularis [21]): inactive; Activity (Echinochloa oryzicola [22]): Active; Activity (Rotala indica [23]): Active; Activity (Rotala indica [24]): Active; Activity (Elatine triandra [25]): Active; Activity (Elatine triandra [26]): Active; Activity (Eleocharis acicularis [27]): Active
CCONC(=O)c1cn(C(C)(C)C)nc1OCc1cccc(C(F)(F)F)c1	inactive	Active	Active	Active	Active	Active	Active	Active	Active	Active	Active	Non-toxic	Active	inactive	inactive	inactive	Active	inactive	inactive	Active	Activity (Echinochloa oryzicola [20]): Active; Activity (Eleocharis acicularis [21]): inactive; Activity (Echinochloa oryzicola [22]): Active; Activity (Rotala indica [23]): Active; Activity (Rotala indica [24]): inactive; Activity (Elatine triandra [25]): Active; Activity (Elatine triandra [26]): inactive; Activity (Eleocharis acicularis [27]): Active
